Where “and” joins values, the source holds several entries; their conditions need not be identical. Equal entries are not always repeated. Where two headings read alike, the source gives them in different places.
How the values were obtained:
PfcProRS = biological target: T1, PfcProRS (Plasmodium falciparum, UniProt Q8I5R7); format: binding; details: for dose-response signal (normalized), SI Fig 8: single replicates
T1 construct: made in house; host or cells: E. coli SoluBL-21

[1] = system: HFGR-I P. falciparum (elevated proline homeostasis and PfcProRS^L482H); test: P. falciparum ABS growth assay, SYBR Green, 72 h, HFGR-I parasites; format: cell-based, Plasmodium falciparum; details: HFGR-I
Summary of the method: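 SYBR Green 1 fluorescence after 72 h quantified growth of erythrocytic-stage Dd2 lines seeded at 1% parasitemia and 1% hematocrit. Compounds were tested in triplicate dose-response format in RPMI with 0.5% Albumax, referenced to 10 μM dihydroartemisinin and untreated wells.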

HsProRS = HsProRS (Homo sapiens, UniProt P07814); test: TR-FRET ligand displacement assay with tracer MAT379 (CoraFluor-1-Halo and anti-His6 antibody formats); format: binding; set-up: made in house; host or cells: E. coli SoluBL-21; details: for TR-FRET dose-response, normalized signal (SI Fig 11): individual replicates
HsProRS, sequence (P07814 996-1512): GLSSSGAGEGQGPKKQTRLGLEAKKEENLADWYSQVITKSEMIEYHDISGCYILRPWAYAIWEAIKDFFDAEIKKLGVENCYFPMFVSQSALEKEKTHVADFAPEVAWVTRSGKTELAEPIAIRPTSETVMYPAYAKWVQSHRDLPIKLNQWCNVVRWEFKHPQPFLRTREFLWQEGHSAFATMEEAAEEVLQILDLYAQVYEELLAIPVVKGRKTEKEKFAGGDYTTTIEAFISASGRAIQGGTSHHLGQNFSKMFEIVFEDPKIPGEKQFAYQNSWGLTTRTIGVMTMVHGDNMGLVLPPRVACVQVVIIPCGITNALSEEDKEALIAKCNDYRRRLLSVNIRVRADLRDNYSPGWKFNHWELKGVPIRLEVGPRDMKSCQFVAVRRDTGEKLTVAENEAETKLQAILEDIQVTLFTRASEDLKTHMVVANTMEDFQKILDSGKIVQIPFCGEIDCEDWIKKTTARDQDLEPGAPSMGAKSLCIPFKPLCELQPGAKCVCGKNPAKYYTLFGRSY

T1 sequence (Q8I5R7 249-746): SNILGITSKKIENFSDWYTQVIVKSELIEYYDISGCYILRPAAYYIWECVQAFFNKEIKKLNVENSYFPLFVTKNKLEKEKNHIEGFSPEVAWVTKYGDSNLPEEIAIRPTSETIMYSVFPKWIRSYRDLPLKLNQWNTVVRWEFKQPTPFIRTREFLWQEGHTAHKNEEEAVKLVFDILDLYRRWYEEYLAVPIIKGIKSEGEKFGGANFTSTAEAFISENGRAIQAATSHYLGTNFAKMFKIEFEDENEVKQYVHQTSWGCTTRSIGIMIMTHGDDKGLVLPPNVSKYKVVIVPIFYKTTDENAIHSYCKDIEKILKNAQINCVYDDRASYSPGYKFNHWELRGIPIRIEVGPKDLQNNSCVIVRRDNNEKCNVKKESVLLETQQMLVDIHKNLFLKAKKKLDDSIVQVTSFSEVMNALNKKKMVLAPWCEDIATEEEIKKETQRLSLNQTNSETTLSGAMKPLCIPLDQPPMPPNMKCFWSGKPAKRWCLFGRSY

## O=C(NC1Cc2ccccc2C1)c1nccnc1NC(=O)C1CCCCC1 [compound 2, reference compound]
PfcProRS; Log[inhibitor] (M) -6.301
  dose-response signal (normalized), SI Fig 8: 1.92E-01 and 4.91E-02 and 9.09E-02 and 1.28E-01 and 2.12E-01 and 1.32E-01
PfcProRS; Log[inhibitor] (M) -6.602
  dose-response signal (normalized), SI Fig 8: 2.13E-01 and 1.64E-01 and 1.25E-01 and 4.31E-02 and 9.86E-02 and 8.65E-02
PfcProRS; Log[inhibitor] (M) -6.904
  dose-response signal (normalized), SI Fig 8: 1.14E-01 and 8.81E-02 and 8.34E-02 and 1.41E-01 and 2.01E-01 and 1.23E-01
PfcProRS; Log[inhibitor] (M) -7.205
  dose-response signal (normalized), SI Fig 8: 2.07E-01 and 2.31E-01 and 1.85E-01 and 3.09E-01 and 3.02E-01 and 1.82E-01
PfcProRS; Log[inhibitor] (M) -7.506
  dose-response signal (normalized), SI Fig 8: 4.98E-01 and 4.91E-01 and 5.79E-01 and 3.60E-01 and 6.32E-01 and 4.92E-01
PfcProRS; Log[inhibitor] (M) -7.796
  dose-response signal (normalized), SI Fig 8: 7.43E-01 and 8.09E-01 and 7.32E-01 and 8.58E-01 and 7.28E-01 and 7.94E-01
PfcProRS; Log[inhibitor] (M) -8.097
  dose-response signal (normalized), SI Fig 8: 9.39E-01 and 7.78E-01 and 8.55E-01 and 1.05E+00 and 7.40E-01 and 9.07E-01
PfcProRS; Log[inhibitor] (M) -8.407
  dose-response signal (normalized), SI Fig 8: 8.45E-01 and 1.01E+00 and 1.04E+00 and 1.10E+00 and 1.00E+00 and 9.65E-01
PfcProRS; Log[inhibitor] (M) -8.708
  dose-response signal (normalized), SI Fig 8: 1.03E+00 and 1.01E+00 and 9.69E-01 and 1.00E+00 and 9.25E-01 and 9.85E-01
PfcProRS; Log[inhibitor] (M) -9.018
  dose-response signal (normalized), SI Fig 8: 1.01E+00 and 9.85E-01 and 9.47E-01 and 1.02E+00 (2×) and 9.53E-01
PfcProRS; Log[inhibitor] (M) -9.319
  dose-response signal (normalized), SI Fig 8: 1.08E+00 and 9.09E-01 and 9.54E-01 and 9.77E-01 and 1.04E+00 and 9.33E-01
PfcProRS; Log[inhibitor] (M) -9.620
  dose-response signal (normalized), SI Fig 8: 9.48E-01 and 9.58E-01 and 1.04E+00 and 1.08E+00 and 1.01E+00 and 9.21E-01
PfcProRS; Log[inhibitor] (M) -9.921
  dose-response signal (normalized), SI Fig 8: 1.02E+00 and 1.01E+00 and 9.29E-01 and 9.34E-01 and 1.07E+00 and 9.91E-01
PfcProRS; Log[inhibitor] (M) -10.097
  dose-response signal (normalized), SI Fig 8: 9.97E-01 and 1.11E+00 (2×) and 9.85E-01 and 1.06E+00 and 9.77E-01
PfcProRS; Log[inhibitor] (M) -10.585
  dose-response signal (normalized), SI Fig 8: 1.09E+00 and 8.10E-01 and 1.01E+00 and 1.14E+00 and 1.16E+00 and 1.07E+00
PfcProRS; SI Fig 16a, values on -log scale
  PfcProRS -- best Kd: 8.144
[1]; Log[inhibitor] (M) -5.000
  parasite growth, replicate wells (Fig 1b): 6.00E+00 (2×) and 7.00E+00
[1]; Log[inhibitor] (M) -5.408
  parasite growth, replicate wells (Fig 1b): 7.00E+00 (2×) and 8.00E+00
[1]; Log[inhibitor] (M) -5.816
  parasite growth, replicate wells (Fig 1b): 1.20E+01 (2×) and 1.40E+01
[1]; Log[inhibitor] (M) -6.222
  parasite growth, replicate wells (Fig 1b): 6.90E+01 (2×) and 7.10E+01
[1]; Log[inhibitor] (M) -6.638
  parasite growth, replicate wells (Fig 1b): 8.90E+01 and 9.90E+01 and 9.60E+01
[1]; Log[inhibitor] (M) -7.046
  parasite growth, replicate wells (Fig 1b): 9.70E+01 and 1.01E+02 (2×)
[1]; Log[inhibitor] (M) -7.450
  parasite growth, replicate wells (Fig 1b): 8.80E+01 and 9.60E+01 and 1.00E+02
[1]; Log[inhibitor] (M) -7.854
  parasite growth, replicate wells (Fig 1b): 1.06E+02 and 1.07E+02 and 9.90E+01
[1]; Log[inhibitor] (M) -8.260
  parasite growth, replicate wells (Fig 1b): 1.03E+02 and 9.80E+01 and 1.01E+02
[1]; Log[inhibitor] (M) -8.699
  parasite growth, replicate wells (Fig 1b): 9.70E+01 (2×) and 9.90E+01
[1]; Log[inhibitor] (M) -9.000
  parasite growth, replicate wells (Fig 1b): 1.04E+02 and 1.02E+02 and 9.80E+01
[1]; Log[inhibitor] (M) -9.488
  parasite growth, replicate wells (Fig 1b): 9.60E+01 and 9.50E+01 and 9.40E+01
HsProRS; HsProRS (KD [nM]) + ATP, 500 μM ATP, 250 nM MAT379
  Kd: 954 nM
HsProRS; HsProRS (KD [nM]) −, absence of substrates, 250 nM MAT379
  Kd: 371 nM
HsProRS; HsProRS - best Kd, SI Fig 16a, values on -log scale
  Kd: 2.16 nM
HsProRS; Log[inhibitor] (M) -5.000
  normalized TR-FRET ligand displacement signal, dose-response replicates (SI Fig 6): 1.03E-01 and 7.51E-02 and 1.04E-01
  TR-FRET dose-response, normalized signal (SI Fig 11): 8.64E-04 and 3.42E-02 and 3.40E-02
HsProRS; Log[inhibitor] (M) -5.301
  normalized TR-FRET ligand displacement signal, dose-response replicates (SI Fig 6): 1.90E-01 and 1.89E-01 and 1.86E-01
  TR-FRET dose-response, normalized signal (SI Fig 11): 7.30E-02 and 5.51E-02 and 3.97E-02
HsProRS; Log[inhibitor] (M) -5.602
  normalized TR-FRET ligand displacement signal, dose-response replicates (SI Fig 6): 3.08E-01 and 2.37E-01 and 3.84E-01
  TR-FRET dose-response, normalized signal (SI Fig 11): 1.33E-01 and 1.75E-01 and 1.42E-01
HsProRS; Log[inhibitor] (M) -5.903
  normalized TR-FRET ligand displacement signal, dose-response replicates (SI Fig 6): 6.24E-01 and 5.01E-01 and 5.97E-01
  TR-FRET dose-response, normalized signal (SI Fig 11): 2.61E-01 and 2.29E-01 and 2.70E-01
HsProRS; Log[inhibitor] (M) -6.204
  normalized TR-FRET ligand displacement signal, dose-response replicates (SI Fig 6): 7.10E-01 and 7.38E-01 and 7.90E-01
  TR-FRET dose-response, normalized signal (SI Fig 11): 4.85E-01 and 4.00E-01 and 4.14E-01
HsProRS; Log[inhibitor] (M) -6.505
  normalized TR-FRET ligand displacement signal, dose-response replicates (SI Fig 6): 9.53E-01 and 9.22E-01 and 9.58E-01
  TR-FRET dose-response, normalized signal (SI Fig 11): 5.65E-01 and 5.68E-01 and 5.80E-01
HsProRS; Log[inhibitor] (M) -6.806
  normalized TR-FRET ligand displacement signal, dose-response replicates (SI Fig 6): 8.96E-01 and 9.59E-01 and 9.45E-01
  TR-FRET dose-response, normalized signal (SI Fig 11): 6.77E-01 and 7.64E-01 and 7.01E-01
HsProRS; Log[inhibitor] (M) -7.107
  normalized TR-FRET ligand displacement signal, dose-response replicates (SI Fig 6): 1.10E+00 and 1.02E+00 and 1.05E+00
  TR-FRET dose-response, normalized signal (SI Fig 11): 8.54E-01 and 8.95E-01 and 8.55E-01
HsProRS; Log[inhibitor] (M) -7.408
  normalized TR-FRET ligand displacement signal, dose-response replicates (SI Fig 6): 1.04E+00
  TR-FRET dose-response, normalized signal (SI Fig 11): 8.94E-01 and 8.78E-01 and 9.74E-01
HsProRS; Log[inhibitor] (M) -7.709
  normalized TR-FRET ligand displacement signal, dose-response replicates (SI Fig 6): 9.76E-01 and 1.06E+00 and 1.03E+00
  TR-FRET dose-response, normalized signal (SI Fig 11): 9.26E-01 and 9.17E-01 and 9.24E-01

— paper PMC9403976, “Elucidating the path to Plasmodium prolyl-tRNA synthetase inhibitors that overcome halofuginone resistance” (Nature Communications, 2022)
